This note sets out measurements from US6399593B1, “Cyclic regimens using cyclic urea and cyclic amide derivatives” (Wyeth, priority 1999, dated 2002).

The assay deals with T47D cells. The assay is described as follows: T47D cell proliferation assay (BrdU incorporation). The class given is cell-based. Particulars: second print headed Table 3, individual studies (Exp 1-3). The protocol: The objective of this assay is the determination of progestational and antiprogestational potency by using a cell proliferation assay in T47D cells. A compound's effect on DNA synthesis in T47D cells is measured.
DMEM:F12 (1:1) (GIBCO, BRL) supplemented with 10% (v/v) fetal bovine serum (not heat-inactivated), 100 U/ml penicillin, […], and 2 mM GlutaMax (GIBCO, BRL).
Minimum Essential Medium (MEM) (#51200-038GIBCO, BRL) phenol red-free supplemented with 0.5% charcoal stripped fetal bovine serum, 100 U/ml penicillin, 200 mg/ml streptomycin, and 2 mM GlutaMax (GIBCO, BRL).
Stock T47D cells are maintained in growth medium. For BrdU incorporation assay, cells are plated in 96-well plates (Falcon, Becton Dickinson Labware) at 10,000 cells/well in growth medium. […]
At the end of BrdU labeling, the medium is removed and BrdU incorporation is measured using a cell proliferation ELISA kit (#RPN 250, Amersham Life Science) according to manufacturer's instructions. […] Then 25 μl of 1 M sulfuric acid is added to each well to stop color reaction and optical density is read in a plate reader at 450 nm within 5 min.
Square root-transformed data are used for analysis of variance and nonlinear dose response curve fitting for both agonist and antagonist modes. […] EC50 or IC50 values are calculated from the retransformed values. […]

Regarding `CC(=O)O[C@]1(C(C)=O)CC[C@H]2[C@@H]3C[C@H](C)C4=CC(=O)CC[C@]4(C)[C@H]3CC[C@@]21C` [MPA, medroxyprogesterone acetate], the EC50 (as a rule, the concentration that produces a half-maximal response) turned out to be 0.017 nM.
